In PubChem BioAssay AID248 (DTP/NCI, 2004):
Values joined by “and” are separate entries in the source; they are usually repeats but may differ in a detail not shown here. Equal entries are not always repeated. Inconclusive results and toxic doses are left out. Rule as the data show it: active = T/C of 150% or more; inactive = T/C below 125%.

Tested on: L1210 leukemia ip in BDF1 mice, survival T/C
Test: NCI In Vivo Anticancer Drug Screen. Data for tumor model L1210 Leukemia (intraperitoneal) in B6D2F1 (BDF1) mice
Conditions: endpoint: mean survival time, higher = longer survival
Outline: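 Tumor cells were implanted, animals were treated, and survival was followed. The result divides the treated measurement by the vehicle-control measurement.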

[1] = dose: 50.0 mg/kg/injection, schedule: Q01DX009 (ip), vehicle: water
[2] = dose: 100.0 mg/kg/injection, schedule: Q01DX009 (ip), vehicle: water
[3] = dose: 200.0 mg/kg/injection, schedule: Q01DX009 (ip), vehicle: water
[4] = dose: 100.0 mg/kg/injection, schedule: Q01DX009 (ip), vehicle: Klucel (hydroxypropylcellulose) (HPC)
[5] = dose: 100.0 mg/kg/injection, schedule: Q04DX003 (ip), vehicle: Klucel (hydroxypropylcellulose) (HPC)
[6] = dose: 200.0 mg/kg/injection, schedule: Q01DX009 (ip), vehicle: Klucel (hydroxypropylcellulose) (HPC)
[7] = dose: 200.0 mg/kg/injection, schedule: Q04DX003 (ip), vehicle: Klucel (hydroxypropylcellulose) (HPC)
[8] = dose: 400.0 mg/kg/injection, schedule: Q01DX009 (ip), vehicle: Klucel (hydroxypropylcellulose) (HPC)
[9] = dose: 400.0 mg/kg/injection, schedule: Q04DX003 (ip), vehicle: Klucel (hydroxypropylcellulose) (HPC)
[10] = dose: 50.0 mg/kg/injection, schedule: Q01DX009 (ip), vehicle: Klucel (hydroxypropylcellulose) (HPC)
[11] = dose: 100.0 mg/kg/injection, schedule: Q04DX003 (ip), vehicle: saline with Tween-80
[12] = dose: 200.0 mg/kg/injection, schedule: Q04DX003 (ip), vehicle: saline with Tween-80
[13] = dose: 400.0 mg/kg/injection, schedule: Q04DX003 (ip), vehicle: saline with Tween-80
[14] = dose: 100.0 mg/kg/injection, schedule: Q01DX001 (ip), vehicle: saline with Tween-80
[15] = dose: 200.0 mg/kg/injection, schedule: Q01DX001 (ip), vehicle: saline with Tween-80
[16] = dose: 400.0 mg/kg/injection, schedule: Q01DX001 (ip), vehicle: saline with Tween-80

Measured: T/C

CCCc1nc2ccccc2c(=O)n1/N=C/c1ccsc1
inactive: dose: 100.0 mg/kg/injection, schedule: Q04DX003 (ip), vehicle: saline sonified 101 % of control | dose: 200.0 mg/kg/injection, schedule: Q04DX003 (ip), vehicle: saline sonified 94 % of control | dose: 400.0 mg/kg/injection, schedule: Q04DX003 (ip), vehicle: saline sonified 94 % of control

COC(=O)NC1CCC(NC(=O)OC)CC1 (stereo not drawn)
inactive: dose: 100.0 mg/kg/injection, schedule: Q01DX001 (ip), vehicle: Klucel (hydroxypropylcellulose) (HPC) 96 % of control | dose: 200.0 mg/kg/injection, schedule: Q01DX001 (ip), vehicle: Klucel (hydroxypropylcellulose) (HPC) 93 % of control | dose: 400.0 mg/kg/injection, schedule: Q01DX001 (ip), vehicle: Klucel (hydroxypropylcellulose) (HPC) 91 % of control

Cc1ccc(CNCC(=O)O)cc1
inactive: [1] 102 % of control | [2] 98 % of control | dose: 100.0 mg/kg/injection, schedule: Q01DX Z (ip), vehicle: saline 96 % of control | dose: 100.0 mg/kg/injection, schedule: Q04DX003 (ip), vehicle: water 95 % of control | [3] 95 % of control | dose: 200.0 mg/kg/injection, schedule: Q01DX Z (ip), vehicle: saline 104 % of control | dose: 200.0 mg/kg/injection, schedule: Q04DX003 (ip), vehicle: water 88 % of control

CCCCCCCCCCCCNC(=O)Nc1ccc(C)cc1C
inactive: [4] 98 % of control | [5] 95 % of control | [6] 94 % of control | [7] 96 % of control | [8] 96 % of control | [9] 100 % of control

O=c1[nH][nH]c2c1cnc1ccccc12
inactive: [10] 97 % of control | [4] 101 % of control | [6] 94 % of control

Cc1ccc(C(=O)/C=C/N2CCN(c3ccccc3)CC2)c(C)c1
inactive: [11] 100 % of control | [12] 105 % of control | [13] 98 % of control

CC(/C=C/c1ccccc1Cl)=N\NC(=O)c1ccncc1
inactive: [14] 95 % of control | [15] 95 % of control | [16] 90 % of control

CC(C)CNc1ccc(S(=O)(=O)c2ccc(NCC(C)C)c([N+](=O)[O-])c2)cc1[N+](=O)[O-]
inactive: dose: 3.12 mg/kg/injection, schedule: Q01DX009 (ip), vehicle: DMSO 92 % of control | dose: 6.25 mg/kg/injection, schedule: Q01DX009 (ip), vehicle: DMSO 89 % of control | dose: 12.5 mg/kg/injection, schedule: Q01DX009 (ip), vehicle: DMSO 105 % of control | dose: 25.0 mg/kg/injection, schedule: Q01DX005 (ip), vehicle: DMSO 92 % of control | dose: 25.0 mg/kg/injection, schedule: Q01DX009 (ip), vehicle: DMSO 88 % of control | dose: 50.0 mg/kg/injection, schedule: Q01DX005 (ip), vehicle: DMSO 92 % of control | dose: 100.0 mg/kg/injection, schedule: Q01DX005 (ip), vehicle: DMSO 90 % of control | dose: 100.0 mg/kg/injection, schedule: Q04DX002 (ip), vehicle: DMSO 96 % of control | dose: 200.0 mg/kg/injection, schedule: Q04DX002 (ip), vehicle: DMSO 111 % of control | dose: 400.0 mg/kg/injection, schedule: Q04DX002 (ip), vehicle: DMSO 107 % of control

ClC12CCC(Cl)(CC1)CC2
inactive: dose: 75.0 mg/kg/injection, schedule: Q01DX001 (ip), vehicle: acetone 103 % of control

CN(C)C(=O)C(=O)c1cn(C)c2ccccc12
inactive: dose: 50.0 mg/kg/injection, schedule: Q01DX001 (ip), vehicle: carboxymethylcellulose (CMC) 95 % of control | dose: 100.0 mg/kg/injection, schedule: Q01DX001 (ip), vehicle: carboxymethylcellulose (CMC) 109 % of control | dose: 200.0 mg/kg/injection, schedule: Q01DX001 (ip), vehicle: carboxymethylcellulose (CMC) 93 % of control | dose: 400.0 mg/kg/injection, schedule: Q01DX001 (ip), vehicle: carboxymethylcellulose (CMC) 101 % of control

O=C1C2C=CC=CC1C1C=CC2C1
inactive: [14] 93 % of control | [15] 104 % of control | [16] 101 % of control

Cc1cc(/C=C/c2ccc3cc(N(C)C)ccc3[n+]2C)c(C)n1-c1ccccc1
inactive: dose: 1.56 mg/kg/injection, schedule: Q01DX009 (ip), vehicle: saline with Tween-80 112 % of control

O=[N+]([O-])c1ccc(S(=O)(=O)N2CCN(S(=O)(=O)c3ccc([N+](=O)[O-])cc3)C2)cc1
inactive: [10] 93 % of control | [4] 87 % of control and 91 % of control | [5] 91 % of control | [6] 93 % of control | [7] 94 % of control | [8] 101 % of control | [9] 98 % of control

C/C=C(\CC)C1(C(C)C)C(=O)NC(=O)NC1=O
inactive: dose: 75.0 mg/kg/injection, schedule: Q01DX001 (ip), vehicle: saline 91 % of control

CCN(CC)CCCC(C)NC(=O)c1cccc2c(N)cccc12 (stereo not drawn)
inactive: dose: 25.0 mg/kg/injection, schedule: Q01DX009 (ip), vehicle: water 110 % of control | [1] 103 % of control | [2] 101 % of control | [3] 95 % of control | dose: 400.0 mg/kg/injection, schedule: Q01DX009 (ip), vehicle: water 103 % of control

Cc1ccccc1C(O)c1cnc(C)n1Cc1ccccc1 (stereo not drawn)
inactive: dose: 50.0 mg/kg/injection, schedule: Q04DX002 (ip), vehicle: saline with Tween-80 105 % of control and 88 % of control | [14] 102 % of control | dose: 100.0 mg/kg/injection, schedule: Q01DX009 (ip), vehicle: saline with Tween-80 100 % of control and 87 % of control | [11] 92 % of control | [15] 90 % of control | dose: 200.0 mg/kg/injection, schedule: Q01DX009 (ip), vehicle: saline with Tween-80 103 % of control | [12] 92 % of control | [16] 93 % of control | dose: 400.0 mg/kg/injection, schedule: Q01DX009 (ip), vehicle: saline with Tween-80 102 % of control | [13] 97 % of control

COc1cc(C=Nc2cc(Br)c(O)c(Br)c2)ccc1N(CCCCl)CCCCl
inactive: [5] 97 % of control | [7] 100 % of control | [9] 102 % of control
